Measured values taken from ChEMBL document CHEMBL4130471, “Design and synthesis of tranylcypromine derivatives as novel LSD1/HDACs dual inhibitors for cancer treatment” (Eur J Med Chem, 2017).
Activity calls are given as the source filed them. The rule behind the calls is not given here.

Legend:
[1] = system: MCF7; experiment: cells; type: functional, cell-based; conditions: Homo sapiens, MCF7, 72 h
Description: Antiproliferative activity against human MCF7 cells incubated for 72 hrs by MTT assay

[2] = target: T1, Lysine-specific histone demethylase 1A (Homo sapiens, UniProt O60341)
Description: Inhibition of recombinant LSD1 (157 to 852 amino acids) (unknown origin) expressed in Escherichia coli BL21(DE) using H3K4me2 substrate by amplex red and horseradish peroxidase based fluorescence assay

[3] = target: Histone deacetylase 2 (Homo sapiens, UniProt Q92769)
Description: Inhibition of C-terminal His-tagged full length human HDAC2 expressed in baculovirus expression system using Ac-peptide substrate incubated for 15 mins by fluorescence based assay

[4] = system: A549; experiment: cells; type: functional, cell-based; conditions: Homo sapiens, A549, 72 h
Description: Antiproliferative activity against human A549 cells incubated for 72 hrs by MTT assay

[5] = target: Histone deacetylase 1 (Homo sapiens, UniProt Q13547); experiment: Inhibition of C-terminal His-tagged and C-terminal FLAG-tagged human HDAC1 expressed in baculovirus expression system using Ac-peptide substrate incubated for 15 mins by fluorescence based assay
[6] = system: SW-620; experiment: cells; type: functional, cell-based; conditions: Homo sapiens, SW-620, 72 h
Description: Antiproliferative activity against human SW620 cells incubated for 72 hrs by MTT assay

[7] = target: T2, Amine oxidase [flavin-containing] B (Homo sapiens, UniProt P27338)
T2 sequence (P27338 whole entry): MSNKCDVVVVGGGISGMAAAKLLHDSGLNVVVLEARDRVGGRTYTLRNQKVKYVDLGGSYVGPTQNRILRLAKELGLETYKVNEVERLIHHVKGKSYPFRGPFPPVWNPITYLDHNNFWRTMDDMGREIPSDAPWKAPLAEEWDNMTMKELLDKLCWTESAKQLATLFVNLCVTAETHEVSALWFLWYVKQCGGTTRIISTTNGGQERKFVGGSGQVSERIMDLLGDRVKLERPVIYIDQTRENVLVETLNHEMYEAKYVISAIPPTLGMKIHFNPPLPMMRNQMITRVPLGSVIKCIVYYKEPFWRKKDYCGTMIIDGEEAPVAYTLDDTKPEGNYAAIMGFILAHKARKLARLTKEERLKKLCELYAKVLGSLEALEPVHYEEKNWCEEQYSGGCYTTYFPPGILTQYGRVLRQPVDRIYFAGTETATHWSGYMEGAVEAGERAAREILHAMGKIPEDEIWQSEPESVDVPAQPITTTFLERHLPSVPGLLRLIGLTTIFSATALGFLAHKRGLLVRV
Description: Inhibition of MAOB (unknown origin) using beetle luciferin as substrate by MAO-Glo assay

[8] = target: T3, Amine oxidase [flavin-containing] A (Homo sapiens, UniProt P21397)
T3 sequence (P21397 whole entry): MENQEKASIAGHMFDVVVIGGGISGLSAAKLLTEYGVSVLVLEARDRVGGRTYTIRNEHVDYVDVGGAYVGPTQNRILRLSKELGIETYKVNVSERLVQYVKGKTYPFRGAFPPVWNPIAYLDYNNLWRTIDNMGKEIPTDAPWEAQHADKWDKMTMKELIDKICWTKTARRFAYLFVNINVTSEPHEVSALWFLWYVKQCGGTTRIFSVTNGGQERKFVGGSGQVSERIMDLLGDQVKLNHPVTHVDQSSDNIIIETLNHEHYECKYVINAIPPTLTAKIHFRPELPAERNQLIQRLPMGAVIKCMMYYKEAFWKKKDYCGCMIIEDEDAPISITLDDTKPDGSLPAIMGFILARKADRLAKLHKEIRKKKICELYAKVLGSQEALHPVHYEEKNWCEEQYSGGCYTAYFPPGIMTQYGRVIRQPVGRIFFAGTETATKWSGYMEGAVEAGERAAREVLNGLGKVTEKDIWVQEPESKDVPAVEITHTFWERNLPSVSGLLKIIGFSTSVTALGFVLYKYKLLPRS
Description: Inhibition of MAOA (unknown origin) using beetle luciferin as substrate by MAO-Glo assay

[9] = system: MGC-803; experiment: cells; type: functional, cell-based; conditions: Homo sapiens, MGC-803, 72 h
Description: Antiproliferative activity against human MGC803 cells incubated for 72 hrs by MTT assay

[10] = target: Histone deacetylase 5 (Homo sapiens, UniProt Q9UQL6); experiment: Inhibition of C-terminal His-tagged human HDAC5 (656-1122 residues) expressed in baculovirus expression system using Ac-peptide substrate incubated for 15 mins by fluorescence based assay
[11] = system: PC-3; experiment: cells; type: functional, cell-based; conditions: Homo sapiens, PC-3, 72 h
Description: Antiproliferative activity against human PC3 cells incubated for 72 hrs by MTT assay

[12] = system: MGC-803; experiment: Induction of apoptosis in human MGC803 cells assessed as viable cells level at 5 uM incubated for 48 hrs by Annexin-V-FITC/propidium iodide staining based flow cytometry (reference value: 92.3%); type: functional
[13] = system: MGC-803; experiment: Induction of apoptosis in human MGC803 cells assessed as late apoptotic cells level at 5 uM incubated for 48 hrs by Annexin-V-FITC/propidium iodide staining based flow cytometry (reference value: 0.121%); type: functional
[14] = system: MGC-803; experiment: Induction of mitochondrial membrane potential loss in human MGC803 cells assessed as FL2 red fluorescence level at 2.5 uM incubated for 48 hrs by JC1 staining based flow cytometry (reference value: 5.47%); type: functional
[15] = target: T1, Lysine-specific histone demethylase 1A; remark: listed apart in the source
[16] = system: MGC-803; experiment: Induction of apoptosis in human MGC803 cells assessed as early apoptotic cells level at 7.5 uM incubated for 48 hrs by Annexin-V-FITC/propidium iodide staining based flow cytometry (reference value: 7.35%); type: functional
[17] = system: MGC-803; experiment: Induction of apoptosis in human MGC803 cells assessed as late apoptotic cells level at 5 uM incubated for 24 hrs by Annexin-V-FITC/propidium iodide staining based flow cytometry (reference value: 0.447%); type: functional
[18] = system: MGC-803; experiment: Induction of apoptosis in human MGC803 cells assessed as viable cells level at 7.5 uM incubated for 24 hrs by Annexin-V-FITC/propidium iodide staining based flow cytometry (reference value: 94.6%); type: functional
[19] = system: MGC-803; experiment: Induction of apoptosis in human MGC803 cells assessed as late apoptotic cells level at 7.5 uM incubated for 24 hrs by Annexin-V-FITC/propidium iodide staining based flow cytometry (reference value: 0.447%); type: functional
[20] = target: T1, Lysine-specific histone demethylase 1A; experiment: Inhibition of LSD1 in human MGC803 cells assessed as increase in cellular H3K4me2 levels incubated for 24 hrs by Western blot; type: cell-based
[21] = system: MGC-803; experiment: Induction of apoptosis in human MGC803 cells assessed as early apoptotic cells level at 7.5 uM incubated for 24 hrs by Annexin-V-FITC/propidium iodide staining based flow cytometry (reference value: 4.37%); type: functional
[22] = system: MGC-803; experiment: Induction of apoptosis in human MGC803 cells assessed as late apoptotic cells level at 2.5 uM incubated for 48 hrs by Annexin-V-FITC/propidium iodide staining based flow cytometry (reference value: 0.121%); type: functional
[23] = system: MGC-803; experiment: Induction of apoptosis in human MGC803 cells assessed as late apoptotic cells level at 2.5 uM incubated for 24 hrs by Annexin-V-FITC/propidium iodide staining based flow cytometry (reference value: 0.447%); type: functional
[24] = target: T1, Lysine-specific histone demethylase 1A; experiment: Inhibition of LSD1 in human MGC803 cells assessed as increase in cellular H3K9me2 levels incubated for 24 hrs by Western blot; type: cell-based
[25] = system: MGC-803; experiment: Induction of apoptosis in human MGC803 cells assessed as late apoptotic cells level at 7.5 uM incubated for 48 hrs by Annexin-V-FITC/propidium iodide staining based flow cytometry (reference value: 0.121%); type: functional
[26] = system: MGC-803; experiment: Induction of apoptosis in human MGC803 cells assessed as necrotic cells level at 2.5 uM incubated for 24 hrs by Annexin-V-FITC/propidium iodide staining based flow cytometry (reference value: 0.596%); type: functional
[27] = system: MGC-803; experiment: Induction of apoptosis in human MGC803 cells assessed as early apoptotic cells level at 5 uM incubated for 24 hrs by Annexin-V-FITC/propidium iodide staining based flow cytometry (reference value: 4.37%); type: functional
[28] = target: Histone deacetylase (Homo sapiens) (UniProt Q13547+O15379+Q9UBN7+Q92769+Q9UQL6+Q8WUI4+Q9BY41+Q96DB2+P56524+Q9UKV0+Q969S8); experiment: Inhibition of HDAC in human MGC803 cells assessed as increase in cellular histone H3 acetylation levels incubated for 24 hrs by Western blot; type: cell-based
[29] = system: MGC-803; experiment: Induction of mitochondrial membrane potential loss in human MGC803 cells assessed as FL2 red fluorescence level at 5 uM incubated for 48 hrs by JC1 staining based flow cytometry (reference value: 5.47%); type: functional
[30] = target: T1, Lysine-specific histone demethylase 1A; experiment: Inhibition of LSD1 in human MGC803 cells assessed as increase in cellular H3K4me3 levels at 1 uM incubated for 24 hrs by Western blot; type: cell-based
[31] = system: MGC-803; experiment: Induction of apoptosis in human MGC803 cells assessed as viable cells level at 2.5 uM incubated for 48 hrs by Annexin-V-FITC/propidium iodide staining based flow cytometry (reference value: 92.3%); type: functional
[32] = system: MGC-803; experiment: Induction of apoptosis in human MGC803 cells assessed as early apoptotic cells level at 2.5 uM incubated for 48 hrs by Annexin-V-FITC/propidium iodide staining based flow cytometry (reference value: 7.35%); type: functional
[33] = system: MGC-803; experiment: Induction of apoptosis in human MGC803 cells assessed as necrotic cells level at 5 uM incubated for 48 hrs by Annexin-V-FITC/propidium iodide staining based flow cytometry (reference value: 0.242%); type: functional
[34] = system: MGC-803; experiment: Induction of apoptosis in human MGC803 cells assessed as necrotic cells level at 5 uM incubated for 24 hrs by Annexin-V-FITC/propidium iodide staining based flow cytometry (reference value: 0.596%); type: functional
[35] = target: T1, Lysine-specific histone demethylase 1A; experiment: Inhibition of LSD1 in human MGC803 cells assessed as increase in cellular H3K4me3 levels at 2 uM incubated for 24 hrs by Western blot; type: cell-based
[36] = system: MGC-803; experiment: Induction of apoptosis in human MGC803 cells assessed as viable cells level at 2.5 uM incubated for 24 hrs by Annexin-V-FITC/propidium iodide staining based flow cytometry (reference value: 94.6%); type: functional
[37] = system: MGC-803; experiment: Induction of apoptosis in human MGC803 cells assessed as necrotic cells level at 7.5 uM incubated for 24 hrs by Annexin-V-FITC/propidium iodide staining based flow cytometry (reference value: 0.596%); type: functional
[38] = system: MGC-803; experiment: Induction of apoptosis in human MGC803 cells assessed as necrotic cells level at 2.5 uM incubated for 48 hrs by Annexin-V-FITC/propidium iodide staining based flow cytometry (reference value: 0.242%); type: functional
[39] = system: MGC-803; experiment: Induction of mitochondrial membrane potential loss in human MGC803 cells assessed as FL2 red fluorescence level at 7.5 uM incubated for 48 hrs by JC1 staining based flow cytometry (reference value: 5.47%); type: functional
[40] = system: MGC-803; experiment: Induction of apoptosis in human MGC803 cells assessed as viable cells level at 7.5 uM incubated for 48 hrs by Annexin-V-FITC/propidium iodide staining based flow cytometry (reference value: 92.3%); type: functional
[41] = system: MGC-803; experiment: Induction of mitochondrial membrane potential loss in human MGC803 cells incubated for 48 hrs by JC1 staining based flow cytometry; type: functional, cell-based
[42] = system: MGC-803; experiment: Induction of apoptosis in human MGC803 cells assessed as viable cells level at 5 uM incubated for 24 hrs by Annexin-V-FITC/propidium iodide staining based flow cytometry (reference value: 94.6%); type: functional
[43] = system: MGC-803; experiment: Induction of apoptosis in human MGC803 cells assessed as early apoptotic cells level at 5 uM incubated for 48 hrs by Annexin-V-FITC/propidium iodide staining based flow cytometry (reference value: 7.35%); type: functional
[44] = system: MGC-803; experiment: Induction of apoptosis in human MGC803 cells assessed as early apoptotic cells level at 2.5 uM incubated for 24 hrs by Annexin-V-FITC/propidium iodide staining based flow cytometry (reference value: 4.37%); type: functional
[45] = system: MGC-803; experiment: Potency index, ratio of IC50 for SAHA to IC50 for test compound for antiproliferative activity against human MGC803 cells incubated for 72 hrs by MTT assay; type: functional
[46] = system: MGC-803; experiment: Induction of apoptosis in human MGC803 cells assessed as necrotic cells level at 7.5 uM incubated for 48 hrs by Annexin-V-FITC/propidium iodide staining based flow cytometry (reference value: 0.242%); type: functional

Histone deacetylase 2, sequence (Q92769 whole entry): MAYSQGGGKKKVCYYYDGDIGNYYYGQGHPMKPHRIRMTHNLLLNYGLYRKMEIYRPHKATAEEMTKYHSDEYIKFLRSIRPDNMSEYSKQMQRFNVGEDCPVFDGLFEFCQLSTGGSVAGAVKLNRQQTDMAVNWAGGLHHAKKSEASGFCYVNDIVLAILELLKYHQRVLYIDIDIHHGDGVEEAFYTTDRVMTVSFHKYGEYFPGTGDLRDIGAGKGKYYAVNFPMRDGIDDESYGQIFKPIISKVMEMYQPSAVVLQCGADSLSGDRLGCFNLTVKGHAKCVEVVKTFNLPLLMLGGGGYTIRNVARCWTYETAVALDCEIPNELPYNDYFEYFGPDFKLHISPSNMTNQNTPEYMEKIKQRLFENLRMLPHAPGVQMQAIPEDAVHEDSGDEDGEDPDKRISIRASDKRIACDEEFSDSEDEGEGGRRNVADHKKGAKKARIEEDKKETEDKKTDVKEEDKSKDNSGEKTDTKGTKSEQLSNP
Histone deacetylase 1, sequence (Q13547 whole entry): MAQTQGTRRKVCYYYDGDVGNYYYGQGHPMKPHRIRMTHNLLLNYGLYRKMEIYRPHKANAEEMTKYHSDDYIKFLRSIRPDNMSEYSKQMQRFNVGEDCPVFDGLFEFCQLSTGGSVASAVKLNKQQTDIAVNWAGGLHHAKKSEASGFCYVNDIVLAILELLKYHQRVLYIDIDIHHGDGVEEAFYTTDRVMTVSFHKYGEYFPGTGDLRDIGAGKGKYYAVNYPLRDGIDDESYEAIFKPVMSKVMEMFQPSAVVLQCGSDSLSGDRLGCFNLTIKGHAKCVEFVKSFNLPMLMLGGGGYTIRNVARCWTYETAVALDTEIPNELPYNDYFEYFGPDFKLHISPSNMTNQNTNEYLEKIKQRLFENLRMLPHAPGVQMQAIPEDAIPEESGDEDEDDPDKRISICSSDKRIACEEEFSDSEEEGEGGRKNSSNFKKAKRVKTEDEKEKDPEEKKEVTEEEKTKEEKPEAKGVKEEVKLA
Histone deacetylase 5, sequence (Q9UQL6 whole entry, the tested form may be a part): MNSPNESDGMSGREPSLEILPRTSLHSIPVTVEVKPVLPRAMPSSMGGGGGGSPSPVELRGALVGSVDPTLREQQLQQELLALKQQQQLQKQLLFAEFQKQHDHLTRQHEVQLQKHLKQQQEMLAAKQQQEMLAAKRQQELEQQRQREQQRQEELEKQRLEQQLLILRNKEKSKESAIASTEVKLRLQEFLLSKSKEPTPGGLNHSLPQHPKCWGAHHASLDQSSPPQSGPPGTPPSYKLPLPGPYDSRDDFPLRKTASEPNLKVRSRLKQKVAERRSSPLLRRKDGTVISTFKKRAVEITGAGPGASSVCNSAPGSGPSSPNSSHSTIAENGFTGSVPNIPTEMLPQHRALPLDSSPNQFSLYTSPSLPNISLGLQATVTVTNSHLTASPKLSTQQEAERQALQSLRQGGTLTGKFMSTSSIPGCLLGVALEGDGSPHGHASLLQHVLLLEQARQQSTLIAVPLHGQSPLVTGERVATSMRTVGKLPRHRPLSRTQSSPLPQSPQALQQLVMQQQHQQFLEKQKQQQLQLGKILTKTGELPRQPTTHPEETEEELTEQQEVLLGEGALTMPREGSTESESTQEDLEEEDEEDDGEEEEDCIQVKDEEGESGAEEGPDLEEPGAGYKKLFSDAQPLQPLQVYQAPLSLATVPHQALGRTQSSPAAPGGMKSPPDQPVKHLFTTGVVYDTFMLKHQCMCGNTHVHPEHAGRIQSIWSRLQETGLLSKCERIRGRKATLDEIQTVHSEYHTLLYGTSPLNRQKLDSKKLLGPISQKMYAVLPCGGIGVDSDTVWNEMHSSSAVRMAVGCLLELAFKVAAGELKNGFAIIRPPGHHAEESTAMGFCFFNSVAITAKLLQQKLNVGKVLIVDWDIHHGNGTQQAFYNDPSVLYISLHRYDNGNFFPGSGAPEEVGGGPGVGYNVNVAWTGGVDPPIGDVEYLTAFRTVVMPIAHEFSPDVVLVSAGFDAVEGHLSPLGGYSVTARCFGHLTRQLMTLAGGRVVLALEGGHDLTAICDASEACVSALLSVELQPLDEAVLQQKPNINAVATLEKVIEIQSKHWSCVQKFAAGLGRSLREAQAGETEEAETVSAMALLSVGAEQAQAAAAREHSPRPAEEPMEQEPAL

Nc1ccccc1NC(=O)/C=C/c1ccc(CNC2CC2c2ccccc2)cc1 (stereo not drawn)
IC50 [1]: 22.1 µM
IC50 [2]: 3.85 µM
IC50 [3]: 0.491 µM
IC50 [4]: 3.17 µM
IC50 [5]: 0.314 µM
IC50 [6]: 26.9 µM
IC50 [7]: > 100 µM
IC50 [8]: 36.9 µM
IC50 [9]: 13.6 µM
IC50 [10]: Not Active
IC50 [11]: 11.6 µM

Nc1ccccc1NC(=O)c1ccc(CNC2CC2c2ccccc2)cc1 (stereo not drawn)
IC50 [1]: 19.5 µM
IC50 [2]: 7.16 µM
IC50 [3]: 0.413 µM
IC50 [4]: 5.36 µM
IC50 [5]: 0.218 µM
IC50 [6]: > 32 µM
IC50 [7]: > 100 µM
IC50 [8]: 50.1 µM
IC50 [9]: 21.5 µM
IC50 [10]: Not Active
IC50 [11]: 21.7 µM

O=C(CCCCCCNC(=O)c1ccc(CNC2(c3ccccc3)CC2)cc1)NO
IC50 [1]: 4.28 µM
Activity [12]: 11.9%
Activity [13]: 43.9%
IC50 [2]: 1.2 µM
Activity [14]: 46.6%
Ratio IC50 [15]: 25
Activity [16]: 41.4%
IC50 [3]: 0.023 µM
Activity [17]: 11%
Activity [18]: 54.7%
Activity [19]: 10.9%
inhibition [20]: Dose-dependent effect
Activity [21]: 31.7%
Activity [22]: 35.2%
Activity [23]: 4.27%
inhibition [24]: Dose-dependent effect
Activity [25]: 49.6%
Activity [26]: 1.22%
Activity [27]: 26.2%
IC50 [4]: 1.34 µM
inhibition [28]: Dose-dependent effect
Activity [29]: 83.5%
IC50 [5]: 0.015 µM
inhibition [30]: inactive
Activity [31]: 25.4%
Activity [32]: 37.2%
IC50 [6]: 2.35 µM
Activity [33]: 2.21%
Activity [34]: 2.82%
IC50 [7]: 87.1 µM
inhibition [35]: inactive
Activity [36]: 72%
IC50 [8]: 21.1 µM
Activity [37]: 2.71%
Activity [38]: 2.2%
Activity [39]: 94%
Activity [40]: 7.42%
Activity [41]: Dose-dependent effect
Activity [42]: 60%
Activity [43]: 42%
IC50 [9]: 0.81 µM
Activity [44]: 22.5%
IC50 ([10]; read-out: IC50): 16.8 µM
Ratio IC50 [45]: 10
Activity [46]: 1.61%
IC50 [11]: 5.48 µM
